Measurements reported in patent US20050107289A1, “Anti-microbial peptides and compositions” (priority 2001, published 2005).
Non-standard residues stand in square brackets, D forms with d. Residues, ends and D or L forms follow the SMILES beside them. NMeL = CN[C@@H](CC(C)C)C(=O)O

Key:
[1] = tested on: S. aureus (MRSA) ATCC 33591; type: cell-based, Staphylococcus aureus
Summary of the method: (§1)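 MICs come from NCCLS-style (M7-A4) dilution testing, mostly microdilution, with an inoculum near 2.5×10^5 cfu/ml from 4000-fold-diluted overnight cultures. Peptide series were 2-fold steps spanning roughly 400–2 μg/ml, prepared in 9% aqueous sucrose with 5% DMSO.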

[2] = tested on: vancomycin-resistant Enterococus faecalis (VRE)(ATCC 51575); type: cell-based, Enterococcus faecalis; set-up: key to VRE (in vitro activity): peptide concentration in μg/ml (broth dilution assay); conditions: for VRE MIC: ATCC 51575
Summary of the method: as §1

[3] = tested on: vancomycin resistant E. faecium (VREF)(ATCC 51575); assay: Mouse peritonitis model, VREF protection; type: in vivo, mice; set-up: PD50 VREF: unit not given here
Description: Vancomycin resistant Enterococcus faecium (VREF) bacteria (ATCC 51575) were grown at 37° C. in 60 mL of Brain Heart Infusion medium (BHI, Difco Laboratories) with agitation for 16 hours to a stationary phase. Cells were collected by centrifugation, washed twice with saline solution and resuspended in 6 mL of saline to a theoretical O.D.650 of 9-10 (determined by taking OD.650 of 10-20 fold diluted samples and correlating it to the original concentration). This suspension was diluted 15 times in a sterilized 5% mucin (Difco) in saline to a concentration of 5-7×10^8 cfu/ml (actual inoculum size was verified by colony counts on agar plates).
(§2) Peptides of the invention were tested in mice to ascertain whether they would protect the mice against bacterial infection using procedures similar to those described in N. Frimodt-Moller et al., The Mouse Peritonitis/Sepsis Model, in Zak et al. (eds.) HANDBOOK OF ANIMAL MODELS OF INFECTION 127-37 (Academic Press 1999).
(§3) Male Balb-C mice (6 weeks old, approximately 20 g) were used in the study. Staphylococcus aureus MRSA bacteria (ATCC 33591) were grown at 37° C. with agitation for 12 hours to a stationary phase. Cells were collected by centrifugation, washed twice with saline and resuspended to an O.D.650 of 1.4. This suspension was diluted ten times with saline and resuspended to a concentration of 3-5×10^7 cfu/ml. For each peptide five groups of eight mice per group were infected I.P. with 0.5 ml of the above Staphylococcus aureus MRSA preparation (lethal dose). Forty-five minutes to an hour after infection, each group was treated with a different dose of peptide and a control group received vehicle only. Mice were monitored for fourteen days; death was defined as the end point. Median protecting doses (PD50) were calculated following the Reed and Muench method. […] For IV and SQ models peptide was administered immediately after IP infection.

[4] = tested on: S. aureus MRSA (ATCC 33591); assay: Mouse peritonitis model, MRSA protection; type: in vivo, mice; set-up: PD50 MRSA: unit not given here
Description: Bacteria were prepared for in vivo using procedures similar to those as previously described. […] S. aureus MRSA bacteria (ATCC 33591) were grown at 37° C. in 5 mL of Antibiotic Medium-3 (AM-3, Difco Laboratories) with agitation for 12 hours to a stationary phase. Cells were collected by centrifugation, washed twice with saline solution and resuspended in about 10 mL of saline to an O.D.650 of 1.2. This suspension was diluted ten times in a sterilized 5% mucin (Difco) in saline to a concentration of 2-4×10^7 cfu/ml (actual inoculum size was verified by colony counts on agar plates).
as §2, §3

[5] = tested on: murine red blood cells; assay: Red blood cell hemolysis; type: cell-based, mouse; conditions: for Hemolysis HD50: red cells of murine
Summary of the method: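 Washed murine erythrocytes at 5% in saline with 10% FBS were exposed to serial peptide dilutions for 30 min at 37° C. Supernatant absorbance at 560 nm was read, with saline as 0% and 1% Triton X-100 as 100% hemolysis.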

[6] = tested on: Bacillus cereus ATCC 11778; type: cell-based
Summary of the method: as §1

[7] = tested on: Streptococcus pneumoniae (ATCC 6301); type: cell-based
Summary of the method: as §1

[8] = tested on: E. coli JM109(DE3); type: cell-based, Escherichia coli; conditions: JM109
Description: The antimicrobial activity of the peptides was determined using a broth dilution assay essentially as descried in the guidelines of the National Committee for […] (NCCLS) [National Committee for Clinical Laboratory Standards. Methods for dilution antimicrobial susceptibility tests for bacteria that grow aerobically. Fourth edition. Approved Standard (1997). Document M7-A4. […] The microdilution method has the advantages of requiring less amount of peptide for each assay and the possibility of multiple simultaneous inoculations and was used in most studies. Several of the strains of bacteria tested are further described in Table 3.
Preparation of peptide solutions. Stock peptide solutions were prepared in 5% DMSO in aq. sucrose (9%). Determination of peptide concentrations was done by quantitative HPLC analysis using known concentrations of internal standards and/or by measuring UV absorption of tryptophane-containing peptide solutions in H2O (λ=280 εTrp: 5690). Serial 2-fold dilutions were made in the above DMSO/aq. sucrose (9%) mixture with concentrations ranging approximately 400-2 μg/ml and aliquots were dispensed in test tubes (100 μl) for the macrodilution test or in microtiter plates (20 μl) for the microdilution assays.
Inoculum preparation. Overnight cultures of different microorganisms grown in suitable media were diluted 4000 times to an approximate inoculum size of 2.5×10^5 cfu/ml.
Macrodilution method. Macrodilution methods were performed using procedures similar to those described in the National Committee for Clinical Laboratory Standards. Methods for dilution antimicrobial susceptibility tests for bacteria that grow aerobically. Fourth edition. Approved Standard (1997). Document M7-A4. (NCCLS,Villanova, Pa., 1997). Two ml aliquots of the above inoculum were dispensed to test tubes containing different peptide solutions.
Microdilution method. Microdilution methods were performed using procedures similar to those described in the National Committee for Clinical Laboratory Standards. Methods for dilution antimicrobial susceptibility tests for bacteria that grow aerobically. Fourth edition. Approved Standard (1997). Document M7-A4.

[9] = Table 12, male Balb-C mice, IP infection, IP peptide
[10] = single bolus IP dose of appropriate amount, 45-60 min after infection

SMILES	MRSA MIC ([1]; ATCC 33591) [µg/mL]	S. aureus (MRSA) MIC ([1]; ATCC 33591) [µg/mL]	MRSA (in vitro activity) ([1]; Table 9, media a: anti-microbial media-3 (AM-3))	VRE MIC [2] [µg/mL]	VRE (in vitro activity) ([2]; Table 9, media a: AM-3)	PD50 E. faecium VREF infection [3] [mg/kg]	PD50 VREF [3, 9]	protection of mice from VREF infection [3, 10]	PD50 S. aureus MRSA infection [4] [mg/kg]	PD50 protective dose where 50% of animals survive ([4]; FIG. 6, mice challenged with lethal doses of MRSA) [mg/kg]	PD50 MRSA [4, 9]	protection of mice from MRSA infection [4, 10]	RBC Hemolysis (HD50) [5]	B. cerius MIC [6] [µg/mL]	S. pneum. MIC [7] [µg/mL]	Hemolysis HD50 [5] [µg/mL]	E. coli MIC [8] [µg/mL]
CC(C)C[C@H]1NC(=O)[C@H](Cc2c[nH]c3ccccc23)NC(=O)[C@@H](CCCCN)NC(=O)[C@H](CCCCN)NC(=O)[C@@H](CCCCN)NC(=O)[C@H](Cc2c[nH]c3ccccc23)NC(=O)[C@@H](CC(C)C)NC(=O)[C@H](Cc2c[nH]c3ccccc23)NC1=O [SEQ ID NO:17, cyclo[-(D-Lys-Lys-D-Lys-(Trp-D-Leu)2-Trp-]] (cyclo([dK]K[dK]W[dL]W[dL]W))	10	8	10	40	40	13	13	completely protect	7	6 ± 2	7	completely protect	45	5	10		
CC(C)C[C@@H](N)C(=O)N[C@@H](Cc1c[nH]c2ccccc12)C(=O)N[C@H](CCCNC(=N)N)C(=O)N[C@@H](CCCNC(=N)N)C(=O)N[C@H](CCCCN)C(=O)N[C@@H](Cc1c[nH]c2ccccc12)C(=O)N[C@H](CC(C)C)C(=O)N[C@@H](Cc1c[nH]c2ccccc12)C(N)=O [SEQ ID NO:137, H-LWRRKWLW-NH2] (H-[dL]W[dR]R[dK]W[dL]W-NH2)	5			40										9	20	100	4
CC(=O)N[C@H](CC(C)C)C(=O)N[C@@H](Cc1c[nH]c2ccccc12)C(=O)N[C@H](CCCNC(=N)N)C(=O)N[C@@H](CCCNC(=N)N)C(=O)N[C@H](CCCCN)C(=O)N[C@@H](Cc1c[nH]c2ccccc12)C(=O)N[C@H](CC(C)C)C(=O)N[C@@H](Cc1c[nH]c2ccccc12)C(N)=O [SEQ ID NO:138, Ac-LWRRKWLW-NH2] (Ac-[dL]W[dR]R[dK]W[dL]W-NH2)	15			100										20	20	100	7
CC(C)C[C@H]1C(=O)N[C@H](Cc2c[nH]c3ccccc23)C(=O)N(C)[C@@H](CC(C)C)C(=O)N[C@H](Cc2c[nH]c3ccccc23)C(=O)N[C@@H](CCCNC(=N)N)C(=O)N[C@H](CCCNC(=N)N)C(=O)N[C@@H](CCCCN)C(=O)N[C@H](Cc2c[nH]c3ccccc23)C(=O)N1C [SEQ ID NO:139, c[RRKW^MeLW^MeLW]] (cyclo(R[dR]K[dW][NMeL][dW][NMeL][dW]))	5			30										5	10	100	5
